Results reported in PubChem BioAssay (NCI).
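Here, GI50 denotes the concentration required for 50% inhibition of growth. Definition used: TGI = concentration required for complete inhibition of growth.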

What was measured:
Experiment in all cases: NCI-60 cell line screen, 384-well format
EKVX NSCLC = test system: EKVX NSCLC
HT29 colon = test system: HT29 colon
RXF 393 renal = test system: RXF 393 renal
HCT-15 colon = test system: HCT-15 colon
SNB-75 CNS = test system: SNB-75 CNS
A549 NSCLC = test system: A549 NSCLC
NCI-H23 lung = test system: NCI-H23 lung
SK-MEL-28 melanoma = test system: SK-MEL-28 melanoma
DU-145 prostate = test system: DU-145 prostate
CCRF-CEM leukemia = test system: CCRF-CEM leukemia
HL-60(TB) leukemia = test system: HL-60(TB) leukemia
A498 renal = test system: A498 renal
HCT-116 colon = test system: HCT-116 colon
BT-549 breast = test system: BT-549 breast
COLO 205 colon = test system: COLO 205 colon
RPMI-8226 leukemia = test system: RPMI-8226 leukemia
SW-620 colon = test system: SW-620 colon
HOP-92 NSCLC = test system: HOP-92 NSCLC
OVCAR-3 ovarian = test system: OVCAR-3 ovarian
SK-MEL-5 melanoma = test system: SK-MEL-5 melanoma
MALME-3M melanoma = test system: MALME-3M melanoma
LOX IMVI melanoma = test system: LOX IMVI melanoma
MDA-MB-231 breast = test system: MDA-MB-231 breast
NCI-H226 lung = test system: NCI-H226 lung
SF-539 CNS = test system: SF-539 CNS
MCF7 breast = test system: MCF7 breast
SNB-19 CNS = test system: SNB-19 CNS
SK-OV-3 ovarian = test system: SK-OV-3 ovarian
HCC-2998 colon = test system: HCC-2998 colon
SF-268 CNS = test system: SF-268 CNS
HS 578T breast = test system: HS 578T breast
OVCAR-4 ovarian = test system: OVCAR-4 ovarian
UO-31 renal = test system: UO-31 renal
MOLT-4 leukemia = test system: MOLT-4 leukemia
SF-295 CNS = test system: SF-295 CNS
K-562 leukemia = test system: K-562 leukemia
SN12C renal = test system: SN12C renal
M14 melanoma = test system: M14 melanoma
TK-10 renal = test system: TK-10 renal
KM12 colon = test system: KM12 colon
MDA-MB-435 melanoma = test system: MDA-MB-435 melanoma
SR leukemia = test system: SR leukemia
PC-3 prostate = test system: PC-3 prostate
OVCAR-8 ovarian = test system: OVCAR-8 ovarian
UACC-257 melanoma = test system: UACC-257 melanoma
MDA-MB-468 breast = test system: MDA-MB-468 breast
CAKI-1 renal = test system: CAKI-1 renal
ACHN renal = test system: ACHN renal
UACC-62 melanoma = test system: UACC-62 melanoma
IGROV1 ovarian = test system: IGROV1 ovarian
NCI-H522 lung = test system: NCI-H522 lung
T-47D breast = test system: T-47D breast
NCI/ADR-RES ovarian = test system: NCI/ADR-RES ovarian
NCI-H322M lung = test system: NCI-H322M lung
U251 glioblastoma = test system: U251 glioblastoma
HOP-62 NSCLC = test system: HOP-62 NSCLC
786-0 renal = test system: 786-0 renal
NCI-H460 NSCLC = test system: NCI-H460 NSCLC

With `Nc1ncccc1-c1nc2ccc(-c3ccccc3)nc2n1-c1ccc(C2(N)CCC2)cc1` as the compound, how does the GI50 (EKVX NSCLC) read?
The GI50 was 1640 nM.

And the TGI (EKVX NSCLC)?
Its TGI is 5080 nM.

What about the GI50 (HT29 colon) of the same compound?
The GI50 was 1100 nM.

What about the TGI (HT29 colon) of the same compound?
Its TGI is 2340 nM.

And the GI50 (RXF 393 renal)?
Its GI50 is 582 nM.

And the TGI (RXF 393 renal)?
The TGI was 1910 nM.

And the GI50 (HCT-15 colon)?
The GI50 was 1240 nM.

What about the TGI (HCT-15 colon) of the same compound?
The TGI was 2490 nM.

And the GI50 (SNB-75 CNS)?
Its GI50 is 597 nM.

And the TGI (SNB-75 CNS)?
The TGI was 2020 nM.

What about the GI50 (A549 NSCLC) of the same compound?
Its GI50 is 1760 nM.

What about the TGI (A549 NSCLC) of the same compound?
Its TGI is 4170 nM.

What about the GI50 (NCI-H23 lung) of the same compound?
Its GI50 is 2400 nM.

And the TGI (NCI-H23 lung)?
The TGI was 8070 nM.

And the GI50 (SK-MEL-28 melanoma)?
The GI50 was 1220 nM.

And the TGI (SK-MEL-28 melanoma)?
Its TGI is 2460 nM.

What about the GI50 (DU-145 prostate) of the same compound?
The GI50 was 2420 nM.

And the TGI (DU-145 prostate)?
Its TGI is 8300 nM.

And the GI50 (CCRF-CEM leukemia)?
The GI50 was 285 nM.

And the TGI (CCRF-CEM leukemia)?
Its TGI is 1760 nM.

And the GI50 (HL-60(TB) leukemia)?
Its GI50 is 1820 nM.

And the TGI (HL-60(TB) leukemia)?
Its TGI is 3210 nM.

And the GI50 (A498 renal)?
Its GI50 is 234 nM.

What about the TGI (A498 renal) of the same compound?
The TGI was 1310 nM.

And the GI50 (HCT-116 colon)?
Its GI50 is 1500 nM.

And the TGI (HCT-116 colon)?
The TGI was 2830 nM.

What about the GI50 (BT-549 breast) of the same compound?
Its GI50 is 1050 nM.

What about the TGI (BT-549 breast) of the same compound?
Its TGI is 2250 nM.

What about the GI50 (COLO 205 colon) of the same compound?
The GI50 was 1030 nM.

And the TGI (COLO 205 colon)?
The TGI was 2210 nM.

And the GI50 (RPMI-8226 leukemia)?
Its GI50 is 1420 nM.

What about the TGI (RPMI-8226 leukemia) of the same compound?
Its TGI is 2720 nM.

And the GI50 (SW-620 colon)?
The GI50 was 1790 nM.

What about the TGI (SW-620 colon) of the same compound?
The TGI was 3180 nM.

And the GI50 (HOP-92 NSCLC)?
Its GI50 is 1400 nM.

What about the TGI (HOP-92 NSCLC) of the same compound?
The TGI was 3120 nM.

And the GI50 (OVCAR-3 ovarian)?
The GI50 was 476 nM.

And the TGI (OVCAR-3 ovarian)?
Its TGI is 2050 nM.

What about the GI50 (SK-MEL-5 melanoma) of the same compound?
Its GI50 is 1450 nM.

And the TGI (SK-MEL-5 melanoma)?
The TGI was 2770 nM.

What about the GI50 (MALME-3M melanoma) of the same compound?
Its GI50 is 464 nM.

And the TGI (MALME-3M melanoma)?
The TGI was 1910 nM.

And the GI50 (LOX IMVI melanoma)?
The GI50 was 1740 nM.

What about the TGI (LOX IMVI melanoma) of the same compound?
Its TGI is 3110 nM.

And the GI50 (MDA-MB-231 breast)?
Its GI50 is 1430 nM.

And the TGI (MDA-MB-231 breast)?
The TGI was 2790 nM.

What about the GI50 (NCI-H226 lung) of the same compound?
The GI50 was 1420 nM.

What about the TGI (NCI-H226 lung) of the same compound?
The TGI was 3340 nM.

And the GI50 (SF-539 CNS)?
Its GI50 is 1160 nM.

What about the TGI (SF-539 CNS) of the same compound?
The TGI was 2380 nM.

What about the GI50 (MCF7 breast) of the same compound?
The GI50 was 96.3 nM.

What about the TGI (MCF7 breast) of the same compound?
The TGI was 1540 nM.

What about the GI50 (SNB-19 CNS) of the same compound?
The GI50 was 1760 nM.

And the TGI (SNB-19 CNS)?
The TGI was 3170 nM.

What about the GI50 (SK-OV-3 ovarian) of the same compound?
Its GI50 is 547 nM.

And the TGI (SK-OV-3 ovarian)?
The TGI was 2190 nM.

And the GI50 (HCC-2998 colon)?
The GI50 was 1350 nM.

What about the TGI (HCC-2998 colon) of the same compound?
Its TGI is 2640 nM.

What about the GI50 (SF-268 CNS) of the same compound?
The GI50 was 1590 nM.

And the TGI (SF-268 CNS)?
Its TGI is 2960 nM.

What about the GI50 (HS 578T breast) of the same compound?
Its GI50 is 1030 nM.

And the TGI (HS 578T breast)?
Its TGI is 2200 nM.

What about the GI50 (OVCAR-4 ovarian) of the same compound?
The GI50 was 3620 nM.

What about the TGI (OVCAR-4 ovarian) of the same compound?
The TGI was 12100 nM.

And the GI50 (UO-31 renal)?
The GI50 was 1320 nM.

What about the TGI (UO-31 renal) of the same compound?
Its TGI is 2600 nM.

And the GI50 (MOLT-4 leukemia)?
The GI50 was 154 nM.

What about the TGI (MOLT-4 leukemia) of the same compound?
Its TGI is 1210 nM.

And the GI50 (SF-295 CNS)?
Its GI50 is 1050 nM.

What about the TGI (SF-295 CNS) of the same compound?
The TGI was 2230 nM.

And the GI50 (K-562 leukemia)?
Its GI50 is 1600 nM.

What about the TGI (K-562 leukemia) of the same compound?
Its TGI is 2950 nM.

And the GI50 (SN12C renal)?
Its GI50 is 2390 nM.

What about the TGI (SN12C renal) of the same compound?
The TGI was 14400 nM.

What about the GI50 (M14 melanoma) of the same compound?
The GI50 was 1370 nM.

What about the TGI (M14 melanoma) of the same compound?
Its TGI is 2660 nM.

And the GI50 (TK-10 renal)?
Its GI50 is 1240 nM.

What about the TGI (TK-10 renal) of the same compound?
Its TGI is 2600 nM.

What about the GI50 (KM12 colon) of the same compound?
The GI50 was 1540 nM.

And the TGI (KM12 colon)?
The TGI was 3270 nM.

And the GI50 (MDA-MB-435 melanoma)?
The GI50 was 1750 nM.

And the TGI (MDA-MB-435 melanoma)?
The TGI was 3130 nM.

And the GI50 (SR leukemia)?
The GI50 was 96.6 nM.

What about the TGI (SR leukemia) of the same compound?
Its TGI is 1260 nM.

What about the GI50 (PC-3 prostate) of the same compound?
The GI50 was 139 nM.

What about the TGI (PC-3 prostate) of the same compound?
The TGI was 1630 nM.

And the GI50 (OVCAR-8 ovarian)?
Its GI50 is 1430 nM.

What about the TGI (OVCAR-8 ovarian) of the same compound?
The TGI was 2750 nM.

What about the GI50 (UACC-257 melanoma) of the same compound?
The GI50 was 1460 nM.

What about the TGI (UACC-257 melanoma) of the same compound?
The TGI was 2770 nM.

What about the GI50 (MDA-MB-468 breast) of the same compound?
Its GI50 is 226 nM.

And the TGI (MDA-MB-468 breast)?
Its TGI is 1420 nM.

And the GI50 (CAKI-1 renal)?
The GI50 was 1050 nM.

What about the TGI (CAKI-1 renal) of the same compound?
The TGI was 2270 nM.

And the GI50 (ACHN renal)?
The GI50 was 1720 nM.

What about the TGI (ACHN renal) of the same compound?
The TGI was 4040 nM.

What about the GI50 (UACC-62 melanoma) of the same compound?
The GI50 was 1160 nM.

What about the TGI (UACC-62 melanoma) of the same compound?
The TGI was 2390 nM.

What about the GI50 (IGROV1 ovarian) of the same compound?
Its GI50 is 187 nM.

And the TGI (IGROV1 ovarian)?
Its TGI is 1810 nM.

What about the GI50 (NCI-H522 lung) of the same compound?
Its GI50 is 1560 nM.

And the TGI (NCI-H522 lung)?
Its TGI is 2900 nM.

And the GI50 (T-47D breast)?
Its GI50 is 35.5 nM.

And the TGI (T-47D breast)?
Its TGI is 1040 nM.

And the GI50 (NCI/ADR-RES ovarian)?
Its GI50 is 1950 nM.

And the TGI (NCI/ADR-RES ovarian)?
The TGI was 4120 nM.

What about the GI50 (NCI-H322M lung) of the same compound?
Its GI50 is 1380 nM.

And the TGI (NCI-H322M lung)?
Its TGI is 2960 nM.

And the GI50 (U251 glioblastoma)?
The GI50 was 1460 nM.

And the TGI (U251 glioblastoma)?
The TGI was 2770 nM.

What about the GI50 (HOP-62 NSCLC) of the same compound?
Its GI50 is 1610 nM.

What about the TGI (HOP-62 NSCLC) of the same compound?
The TGI was 3020 nM.

And the GI50 ([…]-0 renal)?
Its GI50 is 1040 nM.

What about the TGI (786-0 renal) of the same compound?
The TGI was 2220 nM.

And the GI50 (NCI-H460 NSCLC)?
Its GI50 is 359 nM.

And the TGI (NCI-H460 NSCLC)?
The TGI was 1820 nM.
